Assay results taken from patent US11306078B2, “Piperidine CXCR7 receptor modulators” (IDORSIA PHARMACEUTICALS LTD., priority 2016, dated 2022).

biological target: human chemokine receptor CXCR7 (Homo sapiens (Human), UniProt P25106); assay: Tango CXCR7-bla U2OS beta-arrestin recruitment assay (beta-lactamase reporter, FRET), antagonism of CXCL12/SDF1-α; type: cell-based; settings: antagonistic effect on CXCR7; Tango CXCR7-bla U2OS cells, CXCL12/SDF1-α at its EC80;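 also: compounds preincubated 15 min before CXCL12 addition, then 22 h at 37 °C, FRET emission ratio read with CCF4-AM substrate after 2 h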
Sequence (P25106 whole entry): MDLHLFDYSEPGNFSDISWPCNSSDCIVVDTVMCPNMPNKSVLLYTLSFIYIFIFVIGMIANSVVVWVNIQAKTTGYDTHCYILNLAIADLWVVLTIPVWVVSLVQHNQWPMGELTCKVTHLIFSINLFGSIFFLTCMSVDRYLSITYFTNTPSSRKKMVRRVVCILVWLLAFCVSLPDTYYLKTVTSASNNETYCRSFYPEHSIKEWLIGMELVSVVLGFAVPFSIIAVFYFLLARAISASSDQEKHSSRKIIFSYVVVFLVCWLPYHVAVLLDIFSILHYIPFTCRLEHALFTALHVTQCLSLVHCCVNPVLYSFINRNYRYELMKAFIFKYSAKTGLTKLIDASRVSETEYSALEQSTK

SMILES | IC50 [µM]
COC(=O)C1CN(C2CCCCC2)CCC1NC(=O)c1noc(-c2ccc(F)c(F)c2)n1 (stereo not drawn) [BB 1.18c] | 0.119
CN(C)C(=O)[C@@H]1CN(CC2CC2)CC[C@H]1NC(=O)c1cc(-c2c(F)cc(F)cc2F)on1 [Example 1.1] | 0.128
O=C(N[C@@H]1CCN(C2CCCCC2)C[C@H]1C(=O)NCc1ccncc1)c1cc(-c2ccc(F)cc2F)on1 [Example 1.05] | 0.223
CC(CNC(=O)[C@@H]1CN(C2CCCCC2)CC[C@H]1NC(=O)c1cc(-c2ccc(F)cc2F)on1)c1ccccc1 (stereo partly drawn) [Example 1.06] | 0.727
COCC(C)(C)NC(=O)[C@@H]1CN(CC2CC2)CC[C@H]1NC(=O)c1cn(-c2ccc(F)cc2F)nn1 [Example 1.11] | 0.535
C[C@@H]1CCC[C@H]1N1CC[C@@H](NC(=O)c2cn(-c3ccc(F)cc3F)nn2)[C@H](C(=O)N[C@H](C)c2ccccn2)C1 [Example 1.12] | 0.789
C[C@@H](NC(=O)[C@@H]1CN(C2CCCC2)CC[C@H]1NC(=O)c1cc(-c2c(F)cc(F)cc2F)on1)c1cnccn1 [Example 1.13] | 0.14
C[C@@H](NC(=O)[C@@H]1CN(C2CCCCC2)CC[C@H]1NC(=O)c1noc(-c2ccc(F)cc2F)n1)c1cnccn1 [Example 1.16] | 0.526
O=C(N[C@H]1CCN(C2CCCC2)C[C@@H]1C(=O)NC1(c2cccnn2)CC1)c1cc(-c2ccc(F)cc2F)on1 [Example 1.182, (3S,4S)-1-Cyclopentyl-4-{[5-(2,4-difluoro-phenyl)-isoxazole-3-carbonyl]-amino}-piperidine-3-carboxylic acid (1-pyridazin-3-yl-cyclopropyl)-amide] | 0.218
CN(C)C(=O)[C@@H]1CN(CC2CCCC2)CC[C@H]1NC(=O)c1cc(-c2ccc(F)cc2F)on1 [Example 2.03] | 0.074
CN(CCc1ccccc1)C(=O)[C@@H]1CN(CC2CC2)CC[C@H]1NC(=O)c1cc(-c2ccc(F)cc2F)on1 [Example 2.006] | 0.015
O=C(N[C@@H]1CCN([C@@H]2CCCC[C@H]2O)C[C@H]1C(=O)NC1(c2ncccn2)CC1)c1cc(-c2ccc(F)cc2F)on1 [Example 2.06] | 0.004
CC(NC(=O)[C@@H]1CN(C(C)C)CC[C@H]1NC(=O)c1cc(-c2ccc(F)cc2F)on1)c1ccccn1 (stereo partly drawn) [Example 2.007] | 0.088
CC(C)CN1CC[C@H](NC(=O)c2cc(-c3ccc(F)cc3F)on2)[C@@H](C(=O)NC2(c3ncccn3)CC2)C1 [Example 2.07] | 0.011
CCN1CC[C@@H](NC(=O)c2cc(-c3ccc(F)cc3F)on2)[C@H](C(=O)NC(C)c2ccccn2)C1 (stereo partly drawn) [Example 2.008] | 0.405
O=C(N[C@@H]1CCN(CC2CC2)C[C@H]1C(=O)NCCc1ccccn1)c1cc(-c2ccc(F)cc2F)on1 [Example 2.08] | 0.311

Second part, the compound after the results:

IC50 [µM] | SMILES
0.67 | CCN1CC[C@@H](NC(=O)c2cc(-c3ccc(F)cc3F)on2)[C@H](C(=O)N(C)C)C1 [Example 2.002]
0.564 | CC(C)(CC(F)(F)F)NC(=O)[C@@H]1CN(C2CCCCC2)CC[C@H]1NC(=O)c1cc(-c2ccc(F)cc2F)on1 [Example 1.08]
0.559 | O=C(N[C@@H]1CCN(C2CCCCC2)C[C@H]1C(=O)N1CCC(c2ccccc2)C1)c1cc(-c2ccc(F)cc2F)on1 (stereo partly drawn) [Example 1.07]
0.475 | O=C(N[C@@H]1CCN([C@@H]2CCCC[C@H]2F)C[C@H]1C(=O)O)c1cc(-c2ccc(F)cc2F)on1 [Example 2.04]
0.358 | C[C@@H](NC(=O)[C@@H]1CN(C2CCCCC2)CC[C@H]1NC(=O)c1cc(-c2ccc(F)cc2F)no1)C1CCC1 [Example 1.14]
0.294 | O=C(N[C@@H]1CCN(CC2CC2)C[C@H]1C(=O)NC1(c2ncccn2)CC1)c1cc(-c2ccccc2C(F)(F)F)on1 [Example 1.19]
0.248 | CN(C)C(=O)[C@@H]1CN(CC(C)(C)C)CC[C@H]1NC(=O)c1cc(-c2ccc(F)cc2F)on1 [Example 2.02]
0.198 | Cc1cnc(CNC(=O)[C@@H]2CN(C3CCCCC3)CC[C@H]2NC(=O)c2cc(-c3ccc(F)cc3F)on2)s1 [Example 1.02]
0.155 | C[C@@H]1CCC[C@H]1N1CC[C@@H](NC(=O)c2cc(-c3ccc(F)cc3F)no2)[C@H](C(=O)N(C)C)C1 [Example 1.15]
0.118 | CCN1CC[C@@H](NC(=O)c2cc(-c3ccc(F)cc3F)on2)[C@H](C(=O)N(C)CCc2ccccc2)C1 [Example 2.004]
0.104 | O=C(N[C@H]1CCN(C2CCCC2)C[C@@H]1C(=O)NC1(c2cnccn2)CC1)c1cc(-c2ccc(F)cc2F)on1 [Example 1.181, (3S,4S)-1-Cyclopentyl-4-{[5-(2,4-difluoro-phenyl)-isoxazole-3-carbonyl]-amino}-piperidine-3-carboxylic acid (1-pyrazin-2-yl-cyclopropyl)-amide]
0.05 | O=C(N[C@H]1CCN(CC2CC2)C[C@@H]1C(=O)NC1(c2cnccn2)CC1)c1cc(-c2ccc(F)cc2F)on1 [Example 1.179, (3S,4S)-1-Cyclopropylmethyl-4-{[5-(2,4-difluoro-phenyl)-isoxazole-3-carbonyl]-amino}-piperidine-3-carboxylic acid (1-pyrazin-2-yl-cyclopropyl)-amide]
0.035 | C[C@@H](NC(=O)[C@@H]1CN(C2CCCCC2)CC[C@H]1NC(=O)c1cc(-c2ccc(F)cc2F)on1)c1cnccn1 [Example 1.09]
0.034 | CC(C)N1CC[C@@H](NC(=O)c2cc(-c3ccc(F)cc3F)on2)[C@H](C(=O)N(C)CCc2ccccc2)C1 [Example 2.003]
0.025 | CN(CCc1ccccc1)C(=O)[C@@H]1CN(C2CCCC2)CC[C@H]1NC(=O)c1cc(-c2ccc(F)cc2F)on1 [Example 2.005]
0.016 | O=C(N[C@@H]1CCN(C2CCCC2)C[C@H]1C(=O)NC1(c2ccccn2)CC1)c1cc(-c2c(F)cc(F)cc2F)on1 [Example 1.17]
0.015 | CN(CCc1ccccc1)C(=O)[C@@H]1CN([C@@H]2CCCC[C@H]2O)CC[C@H]1NC(=O)c1cc(-c2ccc(F)cc2F)on1 [Example 2.05]
0.009 | Cc1cc(C)nc(C2(NC(=O)[C@H]3CN(CC4CC4)CC[C@@H]3NC(=O)c3cc(-c4ccc(F)cc4F)on3)CC2)n1 [Example 1.185, (3S,4S)-1-Cyclopropylmethyl-4-{[5-(2,4-difluoro-phenyl)-isoxazole-3-carbonyl]-amino}-piperidine-3-carboxylic acid [1-(4,6-dimethyl-pyrimidin-2-yl)-cyclopropyl]-amide]
0.003 | Cc1cc(C)nc(C2(NC(=O)[C@H]3CN(C4CCCC4)CC[C@@H]3NC(=O)c3cc(-c4ccc(F)cc4F)on3)CC2)n1 [Example 1.184, (3S,4S)-1-Cyclopentyl-4-{[5-(2,4-difluoro-phenyl)-isoxazole-3-carbonyl]-amino}-piperidine-3-carboxylic acid [1-(4,6-dimethyl-pyrimidin-2-yl)-cyclopropyl]-amide]

same assay, conditions: antagonistic effect on CXCR7; Tango CXCR7-bla U2OS cells; CXCL12/SDF1-α at its EC80; geometric mean

SMILES | IC50 [µM]
O=C(N[C@@H]1CCN(CC2CC2)C[C@H]1C(=O)NC1(c2ncccn2)CC1)c1cc(C2CC2)on1 (single isomer, unassigned) [Reference Compound 1b, (3R,4R)-4-[(5-Cyclopropyl-isoxazole-3-carbonyl)-amino]-1-cyclopropylmethyl-piperidine-3-carboxylic acid (1-pyrimidin-2-yl-cyclopropyl)-amide or (3S,4S)-4-[(5-cyclopropyl-isoxazole-3-carbonyl)-amino]-1-cyclopropylmethyl-piperidine-3-carboxylic Acid (1-pyrimidin-2-yl-cyclopropyl)-amide, reference compound] | > 10
